This note sets out measurements from US8981106B2, “Pyrimidinecarboxamides as CXCR2 modulators” (Syntrix Biosystems, Inc., priority 2009, dated 2015).

“Also recorded” adds a separate entry of the source.

The test system of data set [1] is neutrophil influx. Kind of data set: Murine air pouch model of neutrophil chemotaxis (i.v.). The format is in vivo, male CD-1 mice. The following applies: i.v., 0.02, 0.05, 0.2 and 1.0 mg/kg. The method, then: (§1) The procedure was performed by forming an air pouch on the backs of male CD-1 mice via the subcutaneous injection of air (2 mL). The next day, an additional subcutaneous injection of air (1.5 mL) was performed to reinflate the air pouch. The mice were given either vehicle control (dimethylformamide/PEG400/saline) or test compound solubilized in vehicle via tail vein injection. After 30 minutes, either sterile phosphate buffered saline (PBS, 1 ml) or 2% carrageenan in sterile PBS (1 mL) was injected into the air pouch. After 4 hours, the mice were sedated with ketamine, and sacrificed by cervical dislocation. The exudate in the air pouch was collected by syringe, with an additional 2 mL wash with sterile PBS. The neutrophils were stained with trypan blue and counted on a hemocytometer under 20× magnification.

Data set [2] has as its target T1, CXCR2 (Homo sapiens (Human), UniProt P25025). Kind of data set: Wash-resistant inhibition of GROα-mediated calcium response after inhibitor washout. The format is cell-based. The conditions noted are these: 0.4, 2, 10 μM, 30 min incubation, washed, up to 6 h after washout.
Target sequence in this assay (P25025 whole entry): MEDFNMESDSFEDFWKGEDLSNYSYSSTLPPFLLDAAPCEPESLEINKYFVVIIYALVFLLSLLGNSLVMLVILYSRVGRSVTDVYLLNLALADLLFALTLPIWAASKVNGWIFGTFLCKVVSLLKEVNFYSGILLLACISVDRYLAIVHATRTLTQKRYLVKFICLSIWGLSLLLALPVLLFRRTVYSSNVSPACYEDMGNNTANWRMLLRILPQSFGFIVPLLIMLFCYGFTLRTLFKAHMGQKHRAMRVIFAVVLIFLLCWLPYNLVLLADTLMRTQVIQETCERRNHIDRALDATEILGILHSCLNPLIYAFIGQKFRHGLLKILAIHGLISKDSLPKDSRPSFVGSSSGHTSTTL
Protocol: The cells were washed and resuspended in RPMI/2% serum (serum was obtained from the same donor as the neutrophils). The concentration of the neutrophil suspension was 10^7 cells/mL. […] The neutrophils were washed and resuspended in RPMI/2% serum and maintained at room temperature. At 30 minutes before each time point, a 56.25 μL aliquot of the neutrophils were removed and loaded for 30 minutes at room temperature in the dark with FLIPR-3 reagent (262.5 μL per tube).
Data set [3] can be described thus: Aqueous solubility. The format is physicochemical.
The target of data set [4] is T1, CXCR2. Kind of data set: Agonist activity: intracellular calcium release in human neutrophils in the absence of GROα. The format is cell-based. The following applies: relative to the response to 25 nM GROα. Here is the method:
In Tables 1-5, the IC50 or EC50 values were determined using the following assay. This assay measures intracellular calcium release via fluorescence as an indication of CXCR2 receptor activation by the physiologic agonist GROα. The assay is a Ca^2+ mobilization assay that measures changes in intracellular Ca^2+ with a FlexStation II scanning fluorometer using a FLIPR-3 Calcium Assay Kit (Molecular Devices, Sunnyvale, Calif.). The procedure is as follows:
9. The maximum change in fluorescence, expressed in arbitrary units over baseline (Max-Min) was used to determine the GROα response. […] Therapeutic Activity
The maximum change in fluorescence, expressed in arbitrary units over baseline (Max-Min), was used to determine the GROα response.
Intracellular calcium release is a hallmark of CXCR2 activation by endogenous agonists, such as GROα and IL-8.
(A change in cytosolic calcium serves as a functional read-out for many receptors and channels.)
Target sequence in this assay (P25025 whole entry): as above

The nature of data set [5]: Crossover pharmacokinetic experiment in Beagle dogs. The format is in vivo. Here is the method:
In this study, male Beagle dogs (n=5) were dosed intravenously on study day 1 with SX-576 in dimethylformamide/PEG400/saline (40:40:20) at a dose level of 5 mg/kg and a dose volume of 0.5 mL/kg. Blood samples were taken predose, and at time points 30, 60, 90, 120, 180, 360, 540 and 720 minutes. The blood was collected in tubes containing K2EDTA as an anticoagulant, and the tubes were centrifuged and the plasma fractions collected and frozen. After a one-week washout period, the same Beagle dogs were dosed orally with SX-576 in lipid based excipient Gelucire® 44/14 (Gattefosse) at a dose level of 5 mg/kg. Blood samples were then taken and plasma fractions collected as previously described. Prior to analysis, the plasma samples were thawed and diluted 1:3 into acetonitrile containing 1 μM of compound 153 as an internal standard. The resulting samples were centrifuged and the supernatant analyzed by LC-MS monitoring in multiple reaction monitoring mode. The samples were run concomitantly with a calibration curve of SX-576 in the same internal standard solution.
The lipid based excipient Gelucire® 44/14 is a self-emulsifying drug delivery system (SEDDS) that is able to solubilize both SX-517 and SX-576 into aqueous solutions via micellular formation. […] Therefore, lipid-based emulsifiers are important excipients for the oral delivery of SX-576.

In data set [6] the target is T1, CXCR2. The experiment in a line: β-arrestin recruitment, β-galactosidase fragment complementation (DiscoveRx).
Target sequence in this assay (P25025 whole entry, species assumed): as the sequence (P25025 whole entry) above
Data set [7] relates to neutrophil influx. The experiment in a line: Murine air pouch model of neutrophil chemotaxis (p.o.). The format is in vivo, male CD-1 mice. Here is the method: as §1, with “Compounds 1 (SX-517) and 2 (SX-576) were also assayed in an in vivo air-pouch model of inflammation. SX-517 and SX-576 were able to attenuate neutrophil influx in the air-pouch model by about 50% at an oral dose of 0.2 and 0.05 mg/kg, respectively. […] More specifically, the procedure” for “The procedure”, “control (Labrasol®)” for “control (dimethylformamide/PEG400/saline)”, “in Labrasol®” for “in vehicle”, “via oral gavage.” for “via tail vein injection.”, “After 3 hours,” for “After 30 minutes,”

For data set [8], the system named is pulmonary inflammation. Kind of data set: Ozone rat model of pulmonary inflammation. The format is in vivo, Sprague-Dawley rats. The following applies: 1 mg/kg i.v., 1 ppm ozone, BALF at 24 hours. Here is the method: Activity in this model of pulmonary inflammation would provide direct relevance towards the treatment of a number of pulmonary inflammatory diseases, including chronic obstructive pulmonary disease (COPD) and bronchopulmonary dysplasia (BPD). In this experiment, Sprague-Dawley rats (n=4 per cohort) were dosed intravenously at t=0 with either vehicle (negative and positive groups, dimethylformamide/PEG400/saline, 40:40:20) or SX-576 (1 mg/kg). The rats were then placed in air (negative group) or 1 ppm ozone (positive and SX-576 groups) for 4 hours. The rats were dosed again at t=5 and 9 hours. The rats were then sacrificed at t=24 hours, and the bronchoalveolar lavage fluid (BALF) was collected. The cells were spun down, stained with Wright-Giemsa and counted. In the negative groups, no neutrophils were observed when stained. As a measure of lung leakage/damage, protein levels were quantified in BALF by Bradford protein assay analysis.

`O=C(Nc1ccc(F)cc1)c1ccc(SCc2cc(OC(F)(F)F)ccc2B(O)O)nc1` [Compound 2, 6-(2-boronic acid-5-trifluoromethoxy-benzylsulfanyl)-N-(4-fluoro-phenyl)-nicotinamide]: the neutrophil influx result in data set [1] is on record as “significantly attenuate neutrophil influx”. The “wash-resistant inhibition of GROα mediated intracellular calcium release” value in data set [2] was “dose-dependent and wash-resistant inhibition”. Moreover, the aqueous solubility entry in data set [3] is “poor aqueous solubility”. In addition, in data set [4], the “Magnitude of Agonist Response (% of GROα only Control)” value is reported as 100%. Besides, the “bioavailability following oral administration” value in data set [5] (5 mg/kg oral in Gelucire 44/14) is on record as “improved the bioavailability”. Further, in data set [5] (without excipient), the “plasma level when dosed without excipient” value is given as “undetected in plasma”. The “activity on β-arrestin complexation with CXCR2 in the absence of IL8” value in data set [6] (absence of IL8) is given as “inverse agonists”. Further, the “inhibition of β-arrestin recruitment following CXCR2 activation with IL8” value in data set [6] (with IL8, listed as SX-576) is listed as “inhibited arrestin recruitment; also recorded: more potent inhibitor than SX-517, comparable to the diarylurea SB225002”. Further, in data set [7] (high doses, compared to control animals), the “total neutrophil counts in the blood” value is “not significantly changed”. The “attenuation of neutrophil influx” value in data set [7] (oral dose 0.05 mg/kg) is listed as “about 50%”. In data set [7] (p.o., 0.05 mg/kg), the neutrophil influx result is on record as “decrease of neutrophil influx”. Further, in data set [7] (p.o., doses in excess of 1 mg/kg), the “neutrophil influx at high oral dose” value is reported as “increase in neutrophil influx”. Further, in data set [8], the “influx of macrophages into the lungs” value is “significantly decreased”, the “influx of neutrophils into the lungs” value is listed as “significantly decreased” and the “ozone-induced lung damage (protein levels in the BALF)” value is given as “protected against ozone-induced lung damage”.
